Publication PMC10746158, “Archaeal GPN-loop GTPases involve a lock-switch-rock mechanism for GTP hydrolysis” (mBio, 2023)

What follows are compounds tested against T1, SaGPN (Sulfolobus acidocaldarius, UniProt Q4J9A7) (assay: isothermal titration calorimetry).
T1 construct: gene Saci_1281; E. coli BL21(DE3) Rosetta; Y2-A240 built, 14 C-terminal residues disordered
T1 sequence (Q4J9A7 1-254): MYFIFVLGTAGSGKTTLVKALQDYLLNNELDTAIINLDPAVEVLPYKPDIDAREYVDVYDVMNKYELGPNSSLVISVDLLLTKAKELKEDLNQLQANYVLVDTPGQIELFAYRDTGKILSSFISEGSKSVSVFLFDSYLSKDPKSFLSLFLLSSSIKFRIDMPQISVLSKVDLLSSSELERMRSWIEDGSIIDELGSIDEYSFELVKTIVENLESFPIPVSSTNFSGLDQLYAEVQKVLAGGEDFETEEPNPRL
Type: binding

SMILES	Kd [nM]
Nc1nc2c(ncn2[C@@H]2O[C@H](COP(=O)(O)OP(=O)(O)NP(=O)(O)O)[C@@H](O)[C@H]2O)c(=O)[nH]1 [GppNHp]	22
Nc1nc2c(ncn2[C@@H]2O[C@H](COP(=O)(O)OP(=O)(O)OP(=O)(O)O)[C@@H](O)[C@H]2O)c(=O)[nH]1 [GTP]	2.2
Nc1nc2c(ncn2[C@@H]2O[C@H](COP(=O)(O)OP(=O)(O)O)[C@@H](O)[C@H]2O)c(=O)[nH]1 [GDP]	6.15
